Read-outs that look alike come from different tables or passages of the source. No end group written: not given here.
Legend:
[1] = tested on: GH release; assay: GH release in anaesthetized rats (plasma rat GH); assay type: in vivo
Experimental: Blood samples were obtained from anaesthetized animals before dosing, and either 10 min after dosing or by frequent blood sampling through a catheter up until 45 min after dosing. The plasma was analyzed for rat GH.
Non-deprived male Wistar rats (n=6-10) were used for the study, dosed with vehicle or with ghrelin at 10 μg/rat icy dissolved in 5 μl saline. […] GH release was measured in Halothane-anaesthetized animals from which blood samples were obtained, before dosing and 10 min after dosing, via the orbital plexus. The plasma was analyzed for rat GH.

[2] = tested on: rat pituitary cells; assay: GH secretion from rat pituitary cells; assay type: cell-based
[3] = tested on: food intake; assay: Food intake in non-deprived male Wistar rats (feeding boxes); assay type: in vivo, rat; conditions: 3 hours after injection
Experimental: Food intake was measured in feeding boxes with standard chow and water placed on balances connected to a computer. Changes in weight of chow and water were continuously registered. Food and water intake were measured for 3 hours after drug injection during early daytime, when food intake is normally at a very low level.
The effect on feeding was tested after icy injections in non-deprived male Wistar rats. The compounds were dissolved in 5 μl saline and injected in the following doses: 10.0 μg per rat (NNC 26-1291) and 30.0 μg per rat (NN703 and NNC 26-1187).
Food intake was measured in feeding boxes, where standard chow and water were placed on balances and changes in weight continuously registered. Food and water intake was measured for 3 hours after drug injection in the beginning of the light part of the diurnal cycle, when food intake is normally at a very low level. […] For comparison, food intake in control animals is normally about 1 gram, and icy administration of 10 μg porcine neuropeptide Y (NPY), which has a strong effect on food intake, increases food consumption to about 8 grams in this model.
Non-deprived male Wistar rats (n=6-10) were used for the study, dosed with vehicle or with ghrelin at 10 μg/rat icy dissolved in 5 μl saline. Food intake was measured in conscious animals, using feeding boxes. Food and water intake were measured for 3 hours after drug injection during early daytime, when food intake is normally at a very low level. GH release was measured in Halothane-anaesthetized animals from which blood samples were obtained, before dosing and 10 min after dosing, via the orbital plexus. The plasma was analyzed for rat GH.

[4] = biological target: T1, GHS-R 1A (Homo sapiens, UniProt Q92847); assay: Receptor binding assay, membranes of BHK/GHS-R 1A cells
T1 construct: expressed in transfected cells; host or cells: BHK cells, stably transfected
T1 sequence (Q92847 whole entry): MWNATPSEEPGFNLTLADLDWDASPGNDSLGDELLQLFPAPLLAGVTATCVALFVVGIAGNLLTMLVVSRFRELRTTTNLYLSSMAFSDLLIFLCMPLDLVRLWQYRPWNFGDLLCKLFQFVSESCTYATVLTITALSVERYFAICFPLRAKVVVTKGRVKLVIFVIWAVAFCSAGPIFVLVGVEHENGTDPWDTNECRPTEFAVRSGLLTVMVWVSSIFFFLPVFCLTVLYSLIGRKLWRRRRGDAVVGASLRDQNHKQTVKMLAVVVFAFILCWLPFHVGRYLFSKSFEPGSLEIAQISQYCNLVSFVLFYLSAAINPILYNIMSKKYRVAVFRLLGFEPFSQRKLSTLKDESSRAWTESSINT
Experimental: Briefly, crude membranes from stably transfected BHK/GHS-R 1A cells were suspended at 0.5 mg protein/ml in homogenization buffer (25 mM Tris-base, 2.5 mM EDTA, 10 mM MgCl2 and 30 μg/ml bacitracin). […] The filters were subsequently washed in 0.9% NaCl and counted using an Optiphase™ ‘HiSafe 3’ counter (Wallac, Turku, Finland).
Specific binding was determined as the difference between total binding and non-specific binding (binding in the presence of 10 μM unlabelled ligand). Binding curves were generated using either the non-linear regression or hyperbolic fit feature of the GraphPad™ Prism software package (GraphPad, San Diego, Calif., U.S.A.).

[5] = tested on: GH release; conditions: cited from earlier work
[6] = read-out: Binding affinity to the GHS-R 1A (Ki)

Compound: Nc1ncnc2c1ncn2[C@@H]1O[C@H](CO)[C@@H](O)[C@H]1O [Adenosine, adenosine]
- GH release after intravenous (iv) administration ([1]; adenosine 1 mg/kg iv, also 10 mg/kg iv in pentobarbital anaesthetized female SD rats): did not stimulate GH release
- GH release after intracerebroventricular (icy) administration ([1]; adenosine 10 and 100 μg/rat icy, Halothane anaesthetized male Wistar rats): did not stimulate GH release
- Stimulation of GH secretion from rat pituitary cells [2]: unable to stimulate GH secretion
- Effect on food intake vs vehicle ([3]; 1 μg/rat icy): no effect
- Effect on food intake vs vehicle ([3]; 10 μg/rat icy): food intake was significantly increased

Compound: CNC(=O)[C@@H](Cc1ccccc1)N(C)C(=O)[C@@H](Cc1ccc2ccccc2c1)N(C)C(=O)/C=C/CC(C)(C)N [NN703]
- Food intake ([3]; 30.0 μg per rat icy): about 3 grams
- Ki [4, 6]: 112 ± 29 nM

Compound: CN(CCc1ccccn1)C(=O)[C@@H](Cc1ccccc1)N(C)C(=O)[C@@H](Cc1ccc2ccccc2c1)N(C)C(=O)/C=C/CC(C)(C)N [NNC 26-1187]
- Ki [4, 6]: 22.2 ± 7 nM

Compound: CN(C)N(C)C(=O)C1(Cc2ccccc2)CCCN(C(=O)[C@@H](Cc2c[nH]c3ccccc23)NC(=O)C(C)(C)N)C1 (stereo partly drawn) [NNC 26-1291]
- Ki [4]: 0.4 ± 0.06 nM

Compound: ghrelin (GSSFLSPEHQRVQQRKESKKPPAKLQPR; ends and bridges not checked; UniProt Q9UBU3 24-51, looked up) [peptide described by Kojima in Nature (1999), vol; 402, 656-660, reference compound]
- GH release after icy administration ([1]; ghrelin 10 μg/rat icy, Halothane-anaesthetized male Wistar rats, 10 min after dosing): did not stimulate GH release
- GH release after iv administration [5]: causes stimulation of GH release
- Effect on food intake vs vehicle ([3]; 10 μg/rat icy): significant effect on feeding
